Laboratory results: ChEMBL document CHEMBL5331046, “Disulfiram and dithiocarbamate analogues demonstrate promising antischistosomal effects” (Eur J Med Chem, 2022)
pEC50: −log10 of the molar value. Activity calls are given as the source filed them. The calls are words filed in the database; no cut-off is given here.

Tests used:
Schistosoma mansoni [1] = assay: Antischistosomal activity against Schistosoma mansoni couples assessed as worm motility at 100 uM measured after 72 hrs by bright field microscopy; assay type: functional
Schistosoma mansoni [2] = assay: Antischistosomal activity against Schistosoma mansoni couples assessed as worm motility at 100 uM treated for 72 hrs and measured at 144 hrs after drug wash-out by bright field microscopy; assay type: functional
Schistosoma mansoni [3] = assay: Antischistosomal activity against Schistosoma mansoni couples assessed as worm motility at 100 uM treated for 72 hrs and measured at 192 hrs after drug wash-out by bright field microscopy; assay type: functional
Schistosoma mansoni [4] = assay: Antischistosomal activity against Schistosoma mansoni couples assessed as worm motility at 50 uM measured after 72 hrs by bright field microscopy; assay type: functional
Schistosoma mansoni [5] = assay: Antischistosomal activity against Schistosoma mansoni couples assessed as worm motility at 50 uM treated for 72 hrs and measured at 144 hrs after drug wash-out by bright field microscopy; assay type: functional
Schistosoma mansoni [6] = assay: Antischistosomal activity against Schistosoma mansoni couples assessed as worm motility at 50 uM treated for 72 hrs and measured at 192 hrs after drug wash-out by bright field microscopy; assay type: functional
Schistosoma mansoni [7] = assay: Antischistosomal activity against Schistosoma mansoni couples assessed as worm motility at 25 uM measured after 72 hrs by bright field microscopy; assay type: functional
Schistosoma mansoni [8] = assay: Antischistosomal activity against Schistosoma mansoni couples assessed as worm motility at 25 uM treated for 72 hrs and measured at 144 hrs after drug wash-out by bright field microscopy; assay type: functional
Schistosoma mansoni [9] = assay: Antischistosomal activity against Schistosoma mansoni couples assessed as worm motility at 25 uM treated for 72 hrs and measured at 192 hrs after drug wash-out by bright field microscopy; assay type: functional
Schistosoma mansoni [10] = assay: Antischistosomal activity against Schistosoma mansoni couples assessed as reduction in pairing stability at 25 to 100 uM treated for 72 hrs and measured at 144 to 192 hrs after drug wash-out by bright field microscopy; assay type: functional, organism-based; details: dose 25-100 µM
Schistosoma mansoni [11] = assay: Antischistosomal activity against Schistosoma mansoni infected in mouse assessed as mouse mortality; assay type: functional
Schistosoma mansoni [12] = assay: Antischistosomal activity against Schistosoma mansoni infected in mouse assessed as decrease in granuloma formation; assay type: functional; parameters: scale not given: the % may be the effect or the level left
HepG2 = assay: Cytotoxicity against human HepG2 cells assessed as reduction in cell vaibility at 100 uM by WST-1 assay; assay type: toxicity, cell-based; details: hepg2, 100 µM
LS174T = assay: Cytotoxicity against human LS174T cells assessed as reduction in cell viability at 100 uM by WST-1 assay; assay type: toxicity, cell-based
Schistosoma mansoni [13] = assay: Antischistosomal activity against Schistosoma mansoni couples assessed as decrease in parasite motility at 10 uM measured upto 72 hrs by bright field microscopy; assay type: functional, organism-based
Schistosoma mansoni [14] = assay: Antischistosomal activity against Schistosoma mansoni couples assessed as decrease in parasite motility at 15 uM measured upto 72 hrs by bright field microscopy; assay type: functional; parameters: scale not given: the % may be the effect or the level left
Schistosoma mansoni [15] = assay: Antischistosomal activity against Schistosoma mansoni couples assessed as decrease in parasite vitality at 15 uM measured upto 72 hrs by bright field microscopy; assay type: functional; parameters: scale not given: the % may be the effect or the level left
Schistosoma mansoni [16] = assay: Antischistosomal activity against Schistosoma mansoni couples assessed as decrease in pairing stability at 15 uM measured upto 72 hrs by bright field microscopy; assay type: functional; parameters: scale not given: the % may be the effect or the level left
Schistosoma mansoni [17] = assay: Antischistosomal activity against Schistosoma mansoni couples assessed as inhibition of eggs production at 15 uM measured upto 72 hrs by bright field microscopy; assay type: functional; parameters: scale not given: the % may be the effect or the level left
Schistosoma mansoni [18] = assay: Antischistosomal activity against Schistosoma mansoni couples assessed as induction of phenotypes at 10 uM measured upto 72 hrs by bright field microscopy; assay type: functional, organism-based
Schistosoma mansoni [19] = assay: Antischistosomal activity against Schistosoma mansoni couples assessed as tegument damage at 10 uM measured upto 72 hrs by bright field microscopy; assay type: functional, organism-based
Schistosoma mansoni [20] = assay: Antischistosomal activity against Schistosoma mansoni couples assessed as loss of internal structures at 10 uM measured upto 72 hrs by bright field microscopy; assay type: functional, organism-based
Schistosoma mansoni [21] = assay: Antischistosomal activity against Schistosoma mansoni couples assessed as tegument damage at <=10 uM measured upto 72 hrs by bright field microscopy; assay type: functional, organism-based
Schistosoma mansoni [22] = assay: Antischistosomal activity against Schistosoma mansoni couples assessed as gut dilatations at <=10 uM measured upto 72 hrs by bright field microscopy; assay type: functional, organism-based
Schistosoma mansoni [23] = assay: Antischistosomal activity against Schistosoma mansoni couples assessed as loss of internal structures at <=10 uM measured upto 72 hrs by bright field microscopy; assay type: functional, organism-based
Schistosoma mansoni [24] = assay: Antischistosomal activity against Schistosoma mansoni couples assessed as reduction in parasite motility at <=10 uM measured upto 72 hrs by bright field microscopy; assay type: functional; parameters: scale not given: the % may be the effect or the level left; details: up to 10 µM
Schistosoma mansoni [25] = assay: Antischistosomal activity against Schistosoma mansoni couples assessed as gut dilatations at 10 uM measured upto 72 hrs by bright field microscopy; assay type: functional, organism-based
Schistosoma mansoni [26] = assay: Antischistosomal activity against Schistosoma mansoni couples assessed as reduction in pairing stability measured up to 72 hrs by bright field microscopy; assay type: functional, organism-based
Schistosoma mansoni [27] = assay: Antischistosomal activity against Schistosoma mansoni couples assessed as reduction in worm motility measured up to 72 hrs by bright field microscopy; assay type: functional, organism-based

CCN(CC)C(=S)SSC(=S)N(CC)CC [DISULFIRAM] was tested, and the Activity (Schistosoma mansoni [1]) was 56%, the Activity (Schistosoma mansoni [2]) was 71% and the Activity (Schistosoma mansoni [3]) was 76%. For the same molecule, the Activity (Schistosoma mansoni [4]) was 62%, the Activity (Schistosoma mansoni [5]) was 75% and the Activity (Schistosoma mansoni [6]) was 84%. For the same molecule, the Activity (Schistosoma mansoni [7]) was 69%, the Activity (Schistosoma mansoni [8]) was 73% and the Activity (Schistosoma mansoni [9]) was 67%. The Activity (Schistosoma mansoni [10]) was “inactive”, the Activity (Schistosoma mansoni [11]) was 60% and the Activity (Schistosoma mansoni [12]) was 80%.
With CS(=O)(=O)N1CCN(C(=S)SCc2ccc([N+](=O)[O-])cc2)CC1 the Activity (HepG2) was “Non-Toxic”, the Activity (LS174T) was “Non-Toxic” and the Activity (Schistosoma mansoni [13]) was “Active”. It also gave an Activity (Schistosoma mansoni [14]) of 50%, an Activity (Schistosoma mansoni [15]) of 90% and an Activity (Schistosoma mansoni [16]) of 20%. For the same molecule, the Activity (Schistosoma mansoni [17]) was 40%, the Activity (Schistosoma mansoni [18]) was “Active” and the Activity (Schistosoma mansoni [19]) was “Active”. The Activity (Schistosoma mansoni [20]) was “Active”, the Activity (Schistosoma mansoni [21]) was “inactive” and the Activity (Schistosoma mansoni [22]) was “inactive”. The Activity (Schistosoma mansoni [23]) was “inactive”, the Activity (Schistosoma mansoni [24]) was 50% and the Activity (Schistosoma mansoni [25]) was “Active”. For the same molecule, the Activity (Schistosoma mansoni [1]) was 31%, the Activity (Schistosoma mansoni [2]) was 24% and the Activity (Schistosoma mansoni [3]) was 24%. It also gave an Activity (Schistosoma mansoni [4]) of 31%, an Activity (Schistosoma mansoni [5]) of 27% and an Activity (Schistosoma mansoni [6]) of 28%. The Activity (Schistosoma mansoni [7]) was 35%, the Activity (Schistosoma mansoni [8]) was 36% and the Activity (Schistosoma mansoni [9]) was 35%. For the same molecule, the pEC50 (Schistosoma mansoni [26]) was 5.04 and the pEC50 (Schistosoma mansoni [27]) was 5.02.
